22 compounds from the CombiSolv-Exp solvation set (Vermeire and Green 2021) can be followed below.

Molecules are shown by their SMILES.

The data set in a line: solvent given as SMILES.

For the compound `NC(=O)c1ccccc1O`, the “solvation free energy, 298 K” value is -13.2 kcal/mol (in C1CCOC1); -13 kcal/mol (in C1COCCO1); -12.1 kcal/mol (in CC(C)(C)O); -13 kcal/mol (in CC(C)=O); -11.9 kcal/mol (in CC(C)CCO); -11.9 kcal/mol (in CC(C)CO). Further, the “solvation free energy, 298 K” value (in CC(C)O) was -12.2 kcal/mol; the “solvation free energy, 298 K” value (in CC(C)OCCO) is -12.8 kcal/mol; the “solvation free energy, 298 K” value (in CC(O)COC(C)(C)C) is -12.6 kcal/mol; the “solvation free energy, 298 K” value (in CCC(C)O) was -12.2 kcal/mol; the “solvation free energy, 298 K” value (in CCCC(C)O) was -12.1 kcal/mol; the “solvation free energy, 298 K” value (in CCCCCCCCCCO) was -11.6 kcal/mol. Also, the “solvation free energy, 298 K” value reads like this: (in CCCCCCCCO) -11.7 kcal/mol; (in CCCCCCCO) -11.8 kcal/mol; (in CCCCCCO) -12 kcal/mol; (in CCCCCO) -12 kcal/mol; (in CCCCO) -12.1 kcal/mol; (in CCCCOC(C)=O) -12.3 kcal/mol. The “solvation free energy, 298 K” value is -10.5 kcal/mol (in CCCCOCCCC); -12.6 kcal/mol (in CCCCOCCO); -12.3 kcal/mol (in CCCO); -12.4 kcal/mol (in CCCOC(C)=O); -12.8 kcal/mol (in CCCOCCO); -12.5 kcal/mol (in CCO). The “solvation free energy, 298 K” value is -12.6 kcal/mol (in CCOC(C)=O); -13 kcal/mol (in CCOCCO); -12.7 kcal/mol (in CO); -12.8 kcal/mol (in COC(C)=O); -12.7 kcal/mol (in COC(C)CCO); -10.6 kcal/mol (in Fc1ccccc1). The “solvation free energy, 298 K” value (in O) is -10.4 kcal/mol.

`O=C(CC(=O)C(F)(F)F)C(F)(F)F`: the “solvation free energy, 298 K” value (in O) is -4.56 kcal/mol.

For the compound `COC(=O)c1ccc(N(C)C)cc1`, the “solvation free energy, 298 K” value (in CN(C)C=O) is -11.9 kcal/mol and the “solvation free energy, 298 K” value (in O) was -7.01 kcal/mol.

On to `CC(=O)C(C)(C)C`, for which the “solvation free energy, 298 K” value runs as follows: (in CCCCCC) -4.34 kcal/mol; (in CCCCCCC) -4.3 kcal/mol; (in CCCCCCCC) -4.21 kcal/mol; (in CCCCCCCCCC) -4.15 kcal/mol; (in O) -3.11 kcal/mol.

On to `C=C(C)C1CC=C(C)C(OC(=O)CCC)C1` (stereo not drawn), for which the “solvation free energy, 298 K” value (in O) is -3.9 kcal/mol.

In the case of `O=c1[nH]cc(Cl)c(=O)[nH]1`, the “solvation free energy, 298 K” value (in O) is -17.7 kcal/mol.

For `FC(F)(F)c1ccccc1`, the “solvation free energy, 298 K” value (in O) is -0.25 kcal/mol.

For the compound `COc1cccc(O)c1`, where the note is “in O”, the “solvation free energy, 298 K” value is -7.67 kcal/mol.

In the case of `Clc1ccc(-c2ccccc2)cc1`, the “solvation free energy, 298 K” value runs as follows: (in CCCCCCCCC=CCCCCCCCC(=O)OCC(COC(=O)CCCCCCCC=CCCCCCCCC)OC(=O)CCCCCCCC=CCCCCCCCC) -9.7 kcal/mol; (in CCCCCCCCO) -9.25 kcal/mol; (in O) -2.44 kcal/mol.

In the case of `CC1=CCC2C(C1)C2(C)C` (stereo not drawn), the “solvation free energy, 298 K” value (in O) is 0.79 kcal/mol.

As for `C=C(CCC=C(C)C)C1CC=C(C)CC1` (stereo not drawn), the “solvation free energy, 298 K” value (in O) was -0.5 kcal/mol.

Regarding `C=C(C)CCC`, the “solvation free energy, 298 K” value (in O) came out at 1.46 kcal/mol.

As to `Cc1cccnc1C`, the “solvation free energy, 298 K” value (in O) was -4.82 kcal/mol.

As for `Clc1cccnc1`, the “solvation free energy, 298 K” value (in O) is -4.01 kcal/mol.

In the case of `FC(F)(F)Cl`, the “solvation free energy, 298 K” value (in CCCCCCC) is -0.6 kcal/mol; the “solvation free energy, 298 K” value (in CCCCCCCC) was -0.53 kcal/mol; the “solvation free energy, 298 K” value (in CCCCCCCC(=O)OCC(COC(=O)CCCCCCC)OC(=O)CCCCCCC) is -0.03 kcal/mol; the “solvation free energy, 298 K” value (in CCCCCCCCC) is -0.46 kcal/mol; the “solvation free energy, 298 K” value (in CCCCCCCCO) was -0.06 kcal/mol; the “solvation free energy, 298 K” value (in CN1CCCC1=O) stood at 0.23 kcal/mol. Further, the “solvation free energy, 298 K” value reads like this: (in CN(C)C=O) 0.08 kcal/mol; (in ClC(Cl)(Cl)Cl) -0.6 kcal/mol; (in O) 2.31 kcal/mol.

Take `CC(=O)CC(=O)c1ccc(F)c(F)c1F`: the “solvation free energy, 298 K” value (in O) is -5.07 kcal/mol.

Regarding `C=C1CCC2(C(C)C)CC12` (stereo not drawn), the “solvation free energy, 298 K” value (in O) was 0.49 kcal/mol.

With `Clc1c(Cl)c(Cl)c2c(c1Cl)Oc1c(Cl)c(Cl)c(Cl)c(Cl)c1O2`, the “solvation free energy, 298 K” value (in O) was -4.53 kcal/mol.

In the case of `C=CC1(C)CCC(C(C)C)=CC1C(=C)C` (stereo not drawn), under “in O”, the “solvation free energy, 298 K” value is -0.42 kcal/mol.

Take `CCC(C)CC`: the “solvation free energy, 298 K” value is, setting by setting: (in C=CCCCCCCCCCCCCCC) -3.42 kcal/mol; (in CC#N) -2.58 kcal/mol; (in CCCCCCCCCCCCCCCC) -3.55 kcal/mol; (in CCCCCO) -3.33 kcal/mol; (in CCCCO) -3.19 kcal/mol; (in O) 2.47 kcal/mol.

As for `CCC(C)CCO` (stereo not drawn), the “solvation free energy, 298 K” value by setting is: (in CCCCCCCC) -4.82 kcal/mol; (in CCCCCCCCCC) -4.79 kcal/mol.

Take `CC(C)(C)OC(=O)c1ccccc1C(=O)OC(C)(C)C`: where the note is “in O”, the “solvation free energy, 298 K” value was -7.09 kcal/mol.
